Laboratory results taken from patent publication US10849994B2, “Pharmaceutical composition comprising fluorine-18 labelled gases” (ASOCIACIÓN CENTRO DE INVESTIGACIÓN COOPERATIVA EN …, priority 2016, dated 2020).

Assay: PET-CT ventilation imaging after inhalation of the radioactive gas
Type: in vivo, rat (Sprague-Dawley)
Conditions: male rats
Method: Imaging studies were conducted with [^18F]CF4.
Male rats (n=2) weighing 350±14 g (Sprague-Dawley, Harlan, Udine, Italy) were used to perform PET studies. The animals were cared for and handled in accordance with the Guidelines for Accommodation and Care of Animals (European Convention for the Protection of Vertebrate Animals Used for Experimental and Other Scientific Purposes) and internal guidelines, and experimental procedures were approved by the Ethical Committee and local authorities.
The radioactive gas was administered by inhalation, by mixing the mixture [^18F]CF4/CF4/Ne obtained at the end of the production process (process A) with the oxygen carrier gas. With that aim, the system depicted in FIG. 3 was implemented.
PET studies were performed using an eXploreVista-CT small animal PET-CT system (GE Healthcare).
Step 1: Rats were anesthetized in an induction chamber using a mixture of 3-4% isoflurane in O2.
Step 2: Animals were rapidly moved into the PET-CT camera, were anaesthesia was maintained with a mixture of 1.5-2.0% isofluorane in O2. During the stay into the PET-CT camera, animals were kept normothermic using a heating blanket (Homeothermic Blanket Control Unit; Bruker). Regular breathing (frequency of 50±10 breaths/minute) was maintained by adjustment of anaesthetic conditions. Respiration and body temperature of the animals were monitored throughout the scan.
Step 3: At t=0 min, with the animal under anaesthesia, acquisition of PET images was started in list mode.
Step 4: At t=1 minute, the syringe pump was started and the radioactive gas ([^18F]CF4, diluted with Neon and non-radioactive CF4, 74 MBq, 2 mCi) was introduced in the main stream of oxygen and consequently administered to the animal.
Step 5: At t=2 minutes, the syringe pump was stopped, and image acquisition was continued until t=10 minutes.
Step 6: After finalising the PET image acquisition, a whole body CT scan was performed, providing anatomical information as well as the attenuation map, for the later image reconstruction.
Images were reconstructed (decay and CT-based attenuation corrected) with OSEM-2D. Twenty nine frames (3×20s, 10×10s, 4×20s and 12×30s) were defined to gain information about the spatiotemporal distribution of the radioactivity. PET images were analysed using PMOD image analysis software (PMOD Technologies Ltd, Zurich, Switzerland). Volumes of interest (VOIs) were manually drawn in the lungs on the CT images. VOIs were then transferred to the PET images and the concentration of radioactivity was obtained for each organ and time frame as cps/cm^3. All frames were finally summed and re-processed to get more accurate images of the distribution of radioactivity within the lungs.

In the case of FC(F)(F)[18F] [[^18F]CF4, ^18F-labelled carbon tetrafluoride], the “distribution of the radioactive gas in the lungs (summed PET-CT images, FIG. 8)” value (n=2, 74 MBq in O2/isoflurane, delivered t=1-2 min, all frames summed) is reported as “uniform distribution of the radioactive gas in the lungs”, the “elimination of the radioactivity from the lungs after delivery of the radioactive gas is discontinued” value (n=2, after the syringe pump was stopped at t=2 min) is reported as “almost complete elimination of the radioactivity is achieved in a few seconds” and the “time-activity curve of a VOI drawn in the whole lungs: plateau (FIG. 9)” value (n=2, during gas delivery) is reported as “reached immediately after the onset of contrast agent administration”. The “distribution of the radioactive gas in the lungs (dynamic images)” value (n=2, dynamic PET frames) was “immediate distribution of the radioactive gas in the lungs”.
